Target: human recombinant P2X7 receptor (Homo sapiens (Human), UniProt Q99572)
Assay: YO-PRO1 assay, P2X7 receptor antagonistic activity

Chain of human recombinant P2X7 receptor (Q99572 whole entry): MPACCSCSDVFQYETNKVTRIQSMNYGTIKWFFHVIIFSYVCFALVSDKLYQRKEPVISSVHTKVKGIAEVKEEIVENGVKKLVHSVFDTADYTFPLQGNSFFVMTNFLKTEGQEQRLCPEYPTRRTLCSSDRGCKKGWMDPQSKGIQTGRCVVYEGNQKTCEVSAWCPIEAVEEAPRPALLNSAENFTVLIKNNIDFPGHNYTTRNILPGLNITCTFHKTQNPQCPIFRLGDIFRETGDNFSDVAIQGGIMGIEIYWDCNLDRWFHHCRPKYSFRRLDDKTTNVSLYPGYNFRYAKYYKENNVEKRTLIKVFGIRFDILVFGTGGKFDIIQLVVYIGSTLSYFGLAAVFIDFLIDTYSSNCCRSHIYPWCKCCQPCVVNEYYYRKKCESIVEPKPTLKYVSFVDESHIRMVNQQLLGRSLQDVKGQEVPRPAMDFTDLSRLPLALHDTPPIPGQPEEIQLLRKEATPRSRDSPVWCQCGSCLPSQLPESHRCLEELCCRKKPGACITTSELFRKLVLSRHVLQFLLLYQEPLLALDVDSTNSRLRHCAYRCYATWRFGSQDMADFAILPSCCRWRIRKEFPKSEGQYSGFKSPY

SMILES: CC(O)c1cc(C(=O)NCC2(O)CCC(F)(F)CC2)c(Cl)c2cc[nH]c12 (racemic) [Example 67, rac-4-Chloro-7-(1-hydroxy-ethyl)-1H-indole-5-carboxylic acid (4,4-difluoro-1-hydroxy-cyclohexylmethyl)-amide]
- IC50: 4.7 nM

SMILES: O=C(NC(CO)C1CCCCCC1)c1ccc2[nH]ccc2c1Cl (racemic) [Example 10, rac-4-Chloro-1H-indole-5-carboxylic acid (1-cycloheptyl-2-hydroxy-ethyl)-amide]
- IC50: 57 nM
